Results on 90 compounds are retold here after a melting point compilation (Tetko et al.; mined from patent text by program, amines drawn as free bases though some values may be those of a salt).

Broadly, the melting point is the temperature of the solid-liquid transition. `COc1cc(C2CCN(C(=O)C(C)(C)N)CC2)ccc1Nc1ncc2ccc(-c3ccccc3N(C)S(C)(=O)=O)n2n1` returned a melting point of 92 to 100 °C.

On to `Cc1cc(-c2cccc(C(F)(F)F)c2)c2nc(OCC(F)(F)F)nnc2c1`, for which the melting point lay in the range of 140 to 141 °C.

In turn, `OCC(O)COc1cc(-c2cccc(Cl)c2)on1` (stereo not given) came in with a melting point of 92 to 93 °C.

`O=CN(Cc1ccccn1)C1(c2ccc(-c3ccccc3)cc2)CCC1` gave a melting point of 101 °C.

Compound `COC(=O)COc1ccc(CCCOS(C)(=O)=O)cc1` came in with a melting point of 49 to 51 °C.

`CC(C)(C)OC(=O)CC(NC(=O)Nc1cccc(C(=O)O)c1)C(=O)Nc1ccccc1C(=O)c1ccccc1` (stereo not given) had a melting point of 175 to 180 °C.

On to `Cc1c([N+](=O)[O-])ccc2c1SC1(Cl)C=C(C(F)(F)F)C=C(Cl)C1O2` (stereo not given), for which the melting point was determined as 135 °C.

`CC(C)Nc1ncc2c(n1)N(C)C(=O)C2` gave a melting point of 120 to 123 °C.

For the compound `O=C(COc1ccc(C(=O)CN2CCN(c3ccncc3)CC2)cc1)NCc1ccccc1`, the melting point fell in the range of 150 to 151 °C.

For the compound `CN(C)CCOc1cc2c(Nc3ccc(Cl)cc3F)c(C#N)cnc2cn1`, the melting point lay within 150 to 152 °C.

Compound `O[C@@H](CCOc1cccc2ccccc12)c1ccccc1` returned a melting point of 76 to 78 °C.

`CSc1nc(C)ccc1NC(=O)CCCCCCCCSc1nc2ccccc2o1` gave a melting point of 99 to 100 °C.

`CCC(CC)=NNc1cc2c(nn1)CCN(C(=O)C(C)(C)C)C2` showed a melting point of 183 to 185 °C.

`COCc1c(C(=O)c2ccccc2)ncc2[nH]c3ccc(O)cc3c12`: the melting point was 258 °C.

For the compound `CCc1c(Oc2ccc(C(F)(F)F)cc2[N+](=O)[O-])nn(C(=O)NC)c1C`, the melting point was in the range of 81 to 82 °C.

Turning to `CC1COC(C(=O)C(C)(C)C)C(C(=O)C(C)(C)C)O1` (stereo not given), the melting point was 123 °C.

The compound `CN(C)C(=O)Cc1cc(Br)ccc1I` displayed a melting point of 127 to 129 °C.

The compound `CC(=O)NCC(=O)N(C)c1ccc(Cl)c(COc2cccn3c(Br)c(C)nc23)c1Cl` registered a melting point of 187 to 189 °C.

Consider `CCOC(=O)C1=C(C)Nc2nc(N3CCOCC3)nc(N3CCOCC3)c2C1c1ccccc1C#N` (stereo not given), for which the melting point was determined as 248 °C.

`COc1ccc(Cc2cc3cc(C#N)ccc3o2)cc1` returned a melting point of 78 to 80 °C.

Regarding `CC(C)c1nsc(N=C(F)N(C)C)c1C#N`, the melting point is 100 to 102 °C.

For `CC(=O)Oc1ccccc1CC1c2ccccc2Oc2ccccc21`, the melting point lay in the range of 77 to 79 °C.

For `CC(C)COc1ccc(C(=O)NCC(=O)O)cc1`, the melting point was 140 to 142 °C.

With `CCc1nc(C)cn1S(=O)(=O)c1c[nH]cn1`, the melting point was in the range of 147 to 148 °C.

Take `COC(=O)Cn1cc2c(c1C)-c1ccc(Cl)cc1C(c1ccccc1Cl)=NC2`: the melting point fell in the range of 174 to 176 °C.

Regarding `CC1(c2ccc3cc(C(O)c4cccnc4)ccc3c2)OCCO1` (stereo not given), the melting point was in the range of 154 to 156 °C.

Compound `CNC(=O)c1ccc(C=CC(=O)Nc2cccc(-c3ccc(C)c(CO)c3C)c2)cc1` displayed a melting point of 272 to 277 °C.

Consider `O=C(O)CCCCCSC1c2ccccc2COc2ccc(OCc3ccc4ccc(Cl)cc4n3)cc21` (stereo not given), for which the melting point lay in the range of 160 to 166 °C.

The compound `C=CCOc1cc(-n2c(OC)nc(C(F)(F)C(F)(F)F)cc2=O)c(F)cc1Cl` showed a melting point of 82 to 83 °C.

Regarding `CNC(=O)CCSCc1csc(NC(N)=NCC(F)(F)F)n1`, the melting point lay in the range of 152 to 154 °C.

As for `CCCN1C(=O)C2C3CCC(O3)C2C1=O` (stereo not given), the melting point was in the range of 79 to 80 °C.

Regarding `CSc1nccc(Oc2ccc(NC(=O)c3cc(F)cc(N4CCOCC4)c3)c3ccccc23)n1`, the melting point fell in the range of 189 to 190 °C.

`CCOC1Nc2c(ccc(OC)c2OC(C)=O)C(=O)N2CCCC12` (stereo not given) came in with a melting point of 143 to 146 °C.

For the compound `CCc1cnc(Nc2ccccn2)s1`, the melting point stood at 113 °C.

`N#CCc1c(C(F)(F)F)cccc1C(F)(F)F` came in with a melting point of 84.5 to 86 °C.

For the compound `Cc1nnnn1-c1ccccc1C(=O)O`, the melting point fell in the range of 157 to 160 °C.

For `Cc1ccc(-c2nc(N)nc(N)n2)cn1`, the melting point is greater than 260 °C.

In turn, `c1ccc(C(Oc2ccncc2)c2ccccc2)cc1` came in with a melting point of 68 to 70 °C.

As for `O=C(O)CCCCCCc1cncc2ccccc12`, the melting point was 108 to 109 °C.

Compound `CCn1ccc2nc(N3CCN(c4ncc5cc(OC)c(OC)cc5n4)CC3)ncc2c1=O` had a melting point of 259 to 262 °C.

Turning to `COc1cc(OCC(=O)O)cc2c1C(Cl)=CC1(CCCCC1)O2`, the melting point was 132 to 133 °C.

`Oc1ccccc1OCCCN1CCC(=C(c2ccc(F)cc2)c2ccc(F)cc2)CC1` yielded a melting point of 125 to 127 °C.

For `CC1NC(C#N)=C(C#N)NC1=O` (stereo not given), the melting point lay within 243 to 245 °C.

`O=C(NCCO)/C(=C/c1ccc(OC(F)(F)F)cc1)NC(=O)c1ccc(OCCC2CC2)cc1`: the melting point was 142 to 144 °C.

As for `COc1cccc(C(=O)c2sccc2Br)c1`, the melting point was found to be 40 °C.

`C=CCOC(=O)c1c(C)nc2[nH]c3ccccc3c2c1N`: the melting point was 220 to 222 °C.

Turning to `FC(F)(F)c1ccc(-c2cc(C(F)(F)F)n3cnc(-c4ccncc4)c3n2)cc1C(F)(F)F`, the melting point was determined as 211 °C.

The compound `O=C(O)c1cc(C(c2ccccc2)c2ccccc2)ccn1` displayed a melting point of 172 to 177 °C.

`NC(=O)C(c1ccc(Cl)cc1)c1ccc(-n2ncc(=O)[nH]c2=O)cc1Cl` (stereo not given) showed a melting point of 161 °C.

Turning to `O=C(Cc1ccccc1[N+](=O)[O-])CN1C(=O)c2ccccc2C1=O`, the melting point was in the range of 179 to 182 °C.

Turning to `COc1cc(N)c(Cl)cc1C(=O)NCCN1CCC(n2c(=O)[nH]c3ccccc32)CC1`, the melting point came out at 230 °C.

On to `CCC1(O)CC(=O)OCc2c1cc1n(c2=O)Cc2c-1nc1ccccc1c2CC[Si](C)(C)C` (stereo not given), for which the melting point is greater than 250 °C.

The compound `C=CCOc1ccc2c(=O)c(C)c(-c3ccccc3)oc2c1C(=O)C=Cc1ccccc1` displayed a melting point of 145 to 147 °C.

Regarding `O=C1C2CCCCC2C2(c3ccccc3)NCCN12` (stereo not given), the melting point was found to be 170 °C.

Take `N#CC(Cc1ccc(Cl)cc1)c1c(Cl)cc(N2N=CCNC2=O)cc1Cl` (stereo not given): the melting point was 213 °C.

Compound `Cn1cc(-c2cccc(C(=O)O)c2)c(=O)c(-n2cccn2)c1` returned a melting point of 280 °C.

On to `CO/C=C(/C(=O)OC)c1ccccc1Oc1cc(N)ncn1`, for which the melting point is 158 to 160 °C.

The compound `O=C1NCCC[C@@H]1NS(=O)(=O)c1ccc(F)cc1` yielded a melting point of 153 to 156 °C.

In turn, `CNc1cc(F)c(C#N)cc1F` displayed a melting point of 160 to 163 °C.

Regarding `CC12CCC3c4cc(N)c(OCc5ccccc5)cc4CCC3C1CCC2=O` (stereo not given), the melting point was 205 to 207 °C.

`CCOC(=O)N1CCc2cc(OC)c(OC)cc2CC1` had a melting point of 91 to 93 °C.

For the compound `CC(C)(C)Cc1c(C(C)(C)C)ssc1=S`, the melting point stood at 81 °C.

`CCOC(=O)c1cn(C2CCCCC2)c2cc(C#Cc3cc(Cc4cnc(N)nc4N)cc(OC)c3OC)ccc2c1=O` gave a melting point of 228 to 230 °C.

As to `CCCN(CCC)C(=O)COc1nc(-c2ccccc2)nc(C)c1Br`, the melting point lay in the range of 107 to 108 °C.

Compound `CCC1(CC)c2ccc(C)cc2C(CC)(CC)N1OC(C)=O` gave a melting point of 76 to 78 °C.

Compound `COc1ccc(Cn2c(=O)c(C#N)c(Cl)c3cc(Cl)cnc32)cc1` registered a melting point of 208 °C.

In the case of `COC(=O)/C=C(\C)c1ccc2c(c1)C(C)(C)OC(=O)N2`, the melting point is 131 to 132 °C.

For the compound `C[C@]12C=CC(=O)N[C@@H]1CCc1cc(-c3cccc([N+](=O)[O-])c3)ccc12`, the melting point lay within 205 to 206 °C.

`CC1=CN2C(=NC(c3ccc(C)cc3)C2C(=O)C(=O)O)C=C1` (stereo not given) had a melting point of 190 to 195 °C.

As for `O=C(O)COc1cc(F)cc(F)c1C(=O)NCc1ccc(Br)cc1F`, the melting point was in the range of 158 to 159 °C.

`CCCCc1nc2c(N)nc3ccc(OCc4ccc(OC(F)(F)F)cc4)cc3c2n1C` had a melting point of 219 to 220 °C.

Take `CCCCCCCCCCC#CC#CCCCCCCCCC(=O)OC(=O)CCCCCCCCC#CC#CCCCCCCCCCC`: the melting point lay in the range of 58 to 59.5 °C.

`CCOCCc1ccc(OCCN(C(=O)n2ccnc2)c2ncnc(C)c2Cl)c(C)c1`: the melting point lay within 87 to 88 °C.

The compound `CS(=O)(=O)c1ccc(-c2cccn2-c2ccc(F)c(Cl)c2)cc1` showed a melting point of 146 to 149 °C.

Regarding `COc1cccc(C(CN2CCN(c3cncc(Cl)n3)CC2)C2(O)CCCCC2)c1` (stereo not given), the melting point lay in the range of 157 to 158 °C.

In turn, `COc1ccc(OC)c2c1C(=O)c1ccc(-c3nnn[nH]3)cc1C2=O` gave a melting point of 260 to 262 °C.

Turning to `O=C(Nc1cccnc1)N1CCN(c2nc(-c3cccc(Cl)c3Cl)cs2)CC1`, the melting point lay within 132 to 133 °C.

Turning to `Cc1cc(=O)c(OCc2ccccc2)c(C(=O)NC2CCC2)n1C`, the melting point fell in the range of 221 to 222 °C.

Compound `Cc1cn(-c2cc(C)c3[nH]c(=O)ccc3c2)c(C)n1` showed a melting point of 322 to 325 °C.

In the case of `CCN1CCN(Cc2nc3sc(C)c(C)c3c(=O)n2-c2ccccc2Cl)CC1`, the melting point was in the range of 126 to 129 °C.

Consider `O=C(NCc1ccc(Cl)cc1)c1noc2ccc(I)cc2c1=O`, for which the melting point is 188 to 190 °C.

In the case of `Nc1ccccc1NCCCN1CCC(n2c(=O)[nH]c3cc(Cl)ccc32)CC1`, the melting point came to 196 °C.

In turn, `Cn1ncc2c3[nH]ncc3ccc21` yielded a melting point of 180 to 184 °C.

Consider `Cc1ccccc1-c1cn(C)cc(-c2ccc(Cl)c(Cl)c2)c1=O`, for which the melting point fell in the range of 103 to 106 °C.

For the compound `CN1CCCCC1CCn1nc(-c2c(-c3ccccc3)nn3ccccc23)ccc1=O` (stereo not given), the melting point was in the range of 114 to 116 °C.

In turn, `CCOc1cc2c(cc1OC(C)=O)C(=O)CC1C2CCC2(C)C(OC(C)=O)CCC12` (stereo not given) yielded a melting point of 195 °C.

Consider `Cc1ccc(C)n1C1=CC2=C(CC1)CCc1[nH]c(=O)c(=O)[nH]c12`, for which the melting point is greater than 265 °C.

`CCOC(=O)c1cnc2nc(C=CC(N)=O)c(OCC)cc2c1Nc1ccc(OC)cc1`: the melting point fell in the range of 238 to 242 °C.

Take `Cc1cnc2c(c1)C(=O)c1cc(-c3ccccc3)c(=O)[nH]c1C2=O`: the melting point was found to be 275 °C.

For `N#Cc1cc(Oc2ccc(Cl)cc2)ccc1[N+](=O)[O-]`, the melting point lay within 120 to 122 °C.
